Results reported in patent US20180303807A1, “ANDROGEN RECEPTOR LIGANDS” (DUKE UNIVERSITY, priority 2015, published 2018).

Columns and labels:
Type in all cases: cell-based
[1] = molecular target: T1, AR (Homo sapiens, UniProt P10275); assay: Reporter gene assay, AR transcriptional (MMTV-Luc) in CV1 cells; conditions: pcDNA-AR + MMTV-Luc, 0.1 nM R1881 plus test compound, 24 hrs, read-out: B1 = AR transcriptional IC50 (μM) in CV1 cells
T1 construct: expressed in transfected cells; host or cells: CV1 cells
T1 sequence (P10275 1-920): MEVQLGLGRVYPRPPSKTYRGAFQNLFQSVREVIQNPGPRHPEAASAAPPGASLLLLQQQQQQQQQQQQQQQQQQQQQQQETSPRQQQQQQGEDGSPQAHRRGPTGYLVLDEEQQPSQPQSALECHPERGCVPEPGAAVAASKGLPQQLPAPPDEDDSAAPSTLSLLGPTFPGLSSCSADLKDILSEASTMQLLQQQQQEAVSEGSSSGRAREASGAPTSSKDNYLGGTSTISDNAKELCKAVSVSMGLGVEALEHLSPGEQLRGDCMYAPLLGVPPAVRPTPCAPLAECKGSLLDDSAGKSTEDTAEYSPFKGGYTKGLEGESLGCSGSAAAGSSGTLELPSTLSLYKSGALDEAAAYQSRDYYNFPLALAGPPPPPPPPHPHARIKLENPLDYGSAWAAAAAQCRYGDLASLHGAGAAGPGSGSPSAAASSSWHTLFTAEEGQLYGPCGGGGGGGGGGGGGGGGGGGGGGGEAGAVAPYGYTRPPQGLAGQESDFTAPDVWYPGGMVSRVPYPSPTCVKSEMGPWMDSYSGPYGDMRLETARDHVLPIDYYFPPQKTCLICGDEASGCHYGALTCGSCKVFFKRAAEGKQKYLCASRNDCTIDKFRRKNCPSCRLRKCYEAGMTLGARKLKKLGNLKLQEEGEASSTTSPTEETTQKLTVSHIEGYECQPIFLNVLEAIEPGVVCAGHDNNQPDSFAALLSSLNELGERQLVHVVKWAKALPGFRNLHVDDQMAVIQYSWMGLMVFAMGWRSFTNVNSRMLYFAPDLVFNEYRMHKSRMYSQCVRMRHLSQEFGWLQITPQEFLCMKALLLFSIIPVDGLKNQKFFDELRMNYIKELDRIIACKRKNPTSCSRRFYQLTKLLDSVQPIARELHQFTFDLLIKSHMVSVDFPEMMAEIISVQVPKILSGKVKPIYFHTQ
Summary of the method: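 CV1 cells transiently co-transfected with human AR, MMTV-Luc reporter and Renilla-Luc (transfection efficiency and toxicity read-out), then stimulated 24 h with 0.1 nM R1881 plus increasing test compound concentrations. Firefly and Renilla luciferase quantified by dual-luciferase assay; IC50 derived from concentration-response.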

[2] = tested on: CV1 cells; assay: Toxicity of test compound in the CV1 reporter gene assay (Renilla-Luc)
Experimental: Reporter Gene Assay (IC50 determination, Table 2, B1-B3). CV1 cells were seeded into 96-well cell culture plates and transfected with Lipofectin. For AR transcriptional assays, the DNA mixture consisted of pcDNA-AR, MMTV-Luc (androgen responsive reporter gene), and Renilla-Luc (for assessing transfection efficiency and toxicity). Following overnight incubation, cells were induced with hormone (0.1 nM R1881 (synthetic AR agonist) plus increasing concentrations of test compound) for 24 hrs. Cells were lysed and luciferase activity was quantified using Dual Luciferase Reagent (DLR). IC50 determination was assessed using GraphPad Prism software.

[3] = tested on: AR; assay: Real-time PCR of AR target gene transcription in LNCaP-AR (AR overexpressing) cells, CRPC model; parameters: key to B5 = Relative antagonist activity (plus 0.1 nM R1881) of test compounds (20 μM) in AR overexpressing LNCaP cells (NKX3.1 AR target gene) / B7 = Relative antagonist activity (plus 0.1 nM R1881) of test compounds (20 μM) in AR overexpressing LNCaP cells (PSA AR target gene): a score of 1 indicates higher antagonist efficacy (highly desired activity) than benchmark compound enzalutamide; a score of 2 indicates equal antagonist efficacy to enzalutamide (desirable); a score of 3 indicates antagonist efficacy between enzalutamide and bicalutamide (less desirable activity); a score of 4 indicates antagonist efficacy equal to bicalutamide (liability); a score of 5 indicates antagonist efficacy worse than bicalutamide (liability); key to B4 = Relative agonist activity (no R1881) of test compounds (20 μM) in AR overexpressing LNCaP cells (NKX3.1 AR target gene) / B6 Relative agonist activity (no R1881) of test compounds (20 μM) in AR overexpressing LNCaP cells (PSA AR target gene): a score of 1 indicates less agonism (highly desired activity) than benchmark compound enzalutamide; a score of 2 indicates equal agonism to enzalutamide (desirable); a score of 3 indicates agonism between enzalutamide and bicalutamide (less desirable activity); a score of 4 indicates equal agonism to bicalutamide (liability); a score of 5 indicates higher agonism than bicalutamide (liability); conditions: 20 μM, score vs enzalutamide/bicalutamide; for B7 = Relative antagonist activity (plus 0.1 nM R1881) of test compounds (20 μM) in AR overexpressing LNCaP cells (PSA AR target gene): plus 0.1 nM R1881, PSA gene; for B4 = Relative agonist activity (no R1881) of test compounds (20 μM) in AR overexpressing LNCaP cells (NKX3.1 AR target gene): no R1881, NKX3.1 gene; for B5 = Relative antagonist activity (plus 0.1 nM R1881) of test compounds (20 μM) in AR overexpressing LNCaP cells (NKX3.1 AR target gene): plus 0.1 nM R1881, NKX3.1 gene
Experimental: Real-Time PCR (CRPC model of AR overexpressing prostate cancer cells, Table 2, B4-B7). LNCaP-AR (AR overexpressing cells) cells were seeded in 12-well plates in RPMI 1640 (8% charcoal-stripped fetal calf serum (CFS)). […] AR target gene transcription (PSA, NKX3.1, FKBP5) was assessed by realtime PCR.
For B4-B7, scoring system is based on the relative AR target gene agonist/antagonist activity of test compounds when compared to benchmark compounds enzalutamide or bicalutamide. […] The lack of agonist activity is desirable for therapies intended to treat CRPC. For B4 and B6, a score of 1 indicates less agonism (highly desired activity) than benchmark compound enzalutamide, a score of 2 indicates equal agonism to enzalutamide (desirable), a score of 3 indicates agonism between enzalutamide and bicalutamide (less desirable activity), a score of 4 indicates equal agonism to bicalutamide (liability), and a score of 5 indicates higher agonism than bicalutamide (liability). For B5 and B7 a score of 1 indicates higher antagonist efficacy (highly desired activity) than benchmark compound enzalutamide, a score of 2 indicates equal antagonist efficacy to enzalutamide (desirable), a score of 3 indicates antagonist efficacy between enzalutamide and bicalutamide (less desirable activity), a score of 4 indicates antagonist efficacy equal to bicalutamide (liability), and a score of 5 indicates antagonist efficacy worse than bicalutamide (liability) For B9, Compounds that degrade AR (greater than 50% degradation at 10 μM) are indicated.

Row | Compound | IC50 [1] [µM] | B2 = % Toxicity of test compound (20 μM) [2] [%] | B3 = % Toxicity of test compound (60 μM) [2] [%] | B7 = Relative antagonist activity (plus 0.1 nM R1881) of test compounds (20 μM) in AR overexpressing LNCaP cells (PSA AR target gene) [3] | B4 = Relative agonist activity (no R1881) of test compounds (20 μM) in AR overexpressing LNCaP cells (NKX3.1 AR target gene) [3] | B6 Relative agonist activity (no R1881) of test compounds (20 μM) in AR overexpressing LNCaP cells (PSA AR target gene) [3] | B5 = Relative antagonist activity (plus 0.1 nM R1881) of test compounds (20 μM) in AR overexpressing LNCaP cells (NKX3.1 AR target gene) [3]
1 | CC1(C)CC(=O)C2=C(C1)Nc1ccc3ncccc3c1C2c1ccc([N+](=O)[O-])cc1 (stereo not drawn) [Compound A2, 9,9-dimethyl-12-(4-nitrophenyl)-8,9,10,12-tetrahydrobenzo[b][4,7]phenanthrolin-11(7H)-one] | 0.2 | 0 | 51 | 1 |  |  | 
2 | O=C1CCCC2=C1C(c1ccc(Cl)cc1Cl)c1c(ccc3ccccc13)N2 (stereo not drawn) [Compound A7] | 3.8 | 75 | 91 | 1 | 1 | 1 | 2
3 | CC1(C)CC(=O)C2=C(C1)Nc1ccc3ccccc3c1C2c1ccc(C#N)cc1 (stereo not drawn) [Compound A3] | 1.6 | 0 | 24 | 1 | 1 | 1 | 1
